Measured values taken from PMC12640959, “Elucidation of anti-SARS-CoV-2 and anti-inflammatory bioactives in Qingyan Dropping Pills via integrated in silico screening and bioactivity validation” (Frontiers in Medicine, 2025).

System: SARS-CoV-2 Omicron BA.5
Assay: cytopathic effects (CPE) inhibition assay in Vero E6 cells
Type: cell-based
Details: result in words

## C[C@@H]1O[C@@H](O[C@H]2[C@H](Oc3cc(O)c4c(=O)cc(-c5ccc(O)cc5)oc4c3)O[C@H](CO)[C@@H](O)[C@@H]2O)[C@H](O)[C@H](O)[C@H]1O [RHO, rhoifolin]
  inhibition of the SARS-CoV-2 Omicron BA.5 variant: failed to inhibit
